Ends that are not written are not given here.
Tested on: LN cells and splenocytes upon SAg or peptide restimulation
Test: Ex vivo tolerization experiment, DR2tg mice
Assay type: in vivo
Details: DR2 mice, IFN-γ
Method: FIG. 7: Ex vivo tolerisation protocol. Mice are injected subcutaneously in the flank with 0.1 μg/ml, 1 μg/ml and 10 μg/ml peptide on days −15, −13 and −11, followed by 3 injections of 100 μg/ml on days −8, −6 and −4 (escalating dose regime). On day 0, mice are immunized subcutaneously at the base of the tail with SAg/CFA or peptide/CFA. Mice are sacrificed 10 days after immunization to measure proliferation of LN cells and splenocytes upon SAg or peptide restimulation. LN, lymph nodes.
FIG. 11: Ex vivo tolerance induction by HIP-9K1-KKK apitope. DR2 mice are injected subcutaneously in the flank with 0.1 μg/ml, 1 μg/ml and 10 μg/ml HIP-9K1-KKK on days −15, −13 and −11, followed by 3 injections of 100 μg/ml on days −8, −6 and −4 (escalating dose regime). On day 0, mice are immunized subcutaneously at the base of the tail with HIP-9FL/CFA. Mice are sacrificed 10 days after immunization to measure proliferation of LN cells and splenocytes upon SAg or peptide restimulation. Data represent mean±SEM of the concentration values for the PBS-treated mice (black lines) and peptide-treated mice (color lines). IFN-γ production expressed as IFN-γ concentration (pg/ml). Two-way ANOVA was used to measure overall treatment effects on T cell activation and p-values are written in the graphs. Bonferonni post-hoc testing was used and significant differences are indicated in the graphs (* p<0.05; **** p<0.0001). LN, lymph nodes. (A) Tolerisation against SAg in LN. (B) Tolerisation against HIP-9FL and HIP-9K1-KKK in LN. (C) Tolerisation against SAg in spleen. (D) Tolerisation against HIP-9FL and HIP-9K1-KKK in spleen.
FIG. 13: Ex vivo tolerance induction by HIP-12G1-KKK apitope. DR2 mice are injected subcutaneously in the flank with 0.1 μg/ml, 1 μg/ml and 10 μg/ml HIP-12G1-KKK on days −15, −13 and −11, followed by 3 injections of 100 μg/ml on days −8, −6 and −4 (escalating dose regime). On day 0, mice are immunized subcutaneously at the base of the tail with HIP-12AK/CFA. Mice are sacrificed 10 days after immunization to measure proliferation of LN cells and splenocytes upon SAg or peptide restimulation. Data represent mean±SEM of the concentration values for the PBS-treated mice (black lines) and peptide-treated mice (color lines). IFN-γ production expressed as IFN-γ concentration (pg/ml). Two-way ANOVA was used to measure overall treatment effects on T cell activation and p-values are written in the graphs. Bonferonni post-hoc testing was used and significant differences are indicated in the graphs (** p<0.01; *** p<0.001: **** p<0.0001). LN, lymph nodes. (A) Tolerisation against HIP-12G1-KKK and HIP-12G1 in LN. (B) Tolerisation against HIP-12G1-KKK in spleen.
DR3tg or DR2tg mice were injected subcutaneously in the flank region with 0.1 μg, 1 μg and 10 μg of peptide on days −15, −13 and −11 respectively, followed by 3 injections of 100 μg peptide on days −8, −6 and −4 (dose escalation schedule). On day 0, the mice were immunised subcutaneously in the base of the tail with 50 μg antigen (parental peptide) emulsified in CFA (peptide/CFA). Ten days after immunisation, draining lymph nodes (LN) and spleens were harvested. LN cells and splenocytes were isolated and cultured in X-vivo 15 medium (supplemented with 2 mM L-glutamine, 50 U/mL penicillin and 50 U/mL streptomycin; Lonza) in 96-well flat bottom plates. To investigate antigen-induced cell proliferation, 0.5×10^6 cells/well were cultured (200 μl/well) for 72 hours with different antigen concentrations (0-25 μg/ml) or with 12.5 μg/ml purified protein derivative (PPD; priming control; Statens serum institut, Copenhagen, Denmark). After 72 hours, supernatant was harvested and stored at −80° C. until further analysis. IFN-γ concentrations in supernatants were assessed by cytokine ELISA (R&D Systems, Abingdon, UK) to measure cell activation.

Substance: KKKAFVEQVANVVLKKK-NH2 [HIP-9K1-KKK, KKKAFVEQVANVVLKKK]
- tolerization against the peptide itself / parental peptide (LN): tolerization induced
- tolerization against SAg (LN, escalating dose regime s.c.): tolerization induced
- tolerization against SAg (spleen): Tolerance is also induced
- tolerization against the peptide itself (spleen): Tolerance is also induced

From patent publication US11542316B2, “S-Arrestin peptides and therapeutic uses thereof” (APITOPE INTERNATIONAL NV, priority 2017, dated 2023)
